From patent US20070042970A1, “Folate-modified cholesterol-bearing pullulan as a drug carrier” (priority 2005, published 2007)

Assays:
TIG-1-20 cells = test: Cell counting experiment (trypan blue, hematocytometer); assay type: cell-based; conditions: 0.2 mg/L DOX; at least for 2 days; folate-depleted DMEM
Description: Cells of either KB or TIG-1-20 were plated in 6 well cultivation plates and preincubated for 2-3 days, and each cultivation medium was replaced with new one (1.98 ml) just before the addition of anticancer reagents (0.02 ml). At the time of the addition, cell densities were about 5×10^4/ml for TIG-1-20, and about 15×10^4/ml for KB (each ca. 20-25% of their confluent states). The additives mainly used were; Control 1: PBS, Control 2 (FC): FA-CHP (1 mg)-CHP (4 mg) complex solution in 1 ml PBS, DOX 1: 0.02 mg doxorubicin/ml-PBS, DOX 2: 0.03 mg doxorubicin/ml-PBS, FA-CHP-CHP-DOX 1 (FCD 1): FA-CHP (1 mg)-CHP (4 mg)-DOX (0.02 mg) in 1 ml PBS, FA-CHP-CHP-DOX 2 (FCD 2): FA-CHP (1 mg)-CHP (4 mg)-DOX (0.03 mg) in 1 ml PBS. Drug mixtures with other composition were also tested essentially by the same procedure.
The culture medium was removed to 15 ml centrifugation tube, and cells remained attached to the dish were removed with Sigma cell dissociation solution (non-enzymatic, in PBS) in the case of KB, and with 0.05% trypsin and 0.02% EDTA solution in the case of TIG-1-20. […] After mixing with pipetting, all cells were counted on improved Neubauer hematocytometer. Detached cells were also counted by the same procedure after adjusting the removed medium to 2 ml.

[1] = assay type: physicochemical
Description: For example, 5.0 mg of FA-CHP can simply complex with 0.01 mg of DOX. Complexes of DOX with a mixture of FA-CHP and CHP are denoted as FA-CHP-CHP-DOX hereafter.

Molecule	TIG-1-20 cell death / proliferation (cell number counting) (TIG-1-20 cells)	solubility in PBS [1]
COc1cccc2c1C(=O)c1c(O)c3c(c(O)c1C2=O)C[C@@](O)(C(=O)CO)C[C@@H]3O[C@H]1C[C@H](N)[C@H](O)[C@H](C)O1 [DOX, Doxorubicin]	completely killed cell proliferation	
folate modified cholesterol-bearing pullulan [FA-CHP]		easily soluble
